# Measurements: patent publication US10919902B2, “Hetero-halo inhibitors of histone deacetylase” (Alkermes, Inc., priority 2015, dated 2021)
# Molecular target: recombinant human HDACs (Homo sapiens)
# Experiment: HDAC enzymatic assay
# Type: biochemical
# Settings: 5 nM HDAC enzyme, 5 h pre-incubation, 17 h reaction at 25° C.; isoform not given; read-out: IC50
# Experimental: All recombinant human HDACs were purchased from BPS Bioscience. The substrate, FAM-TSRHK(AC)KL-CONH, was synthesized at NanoSyn. Final assay reactions contained 100 mM HEPES (pH 7.5), 50 mM KCl, 0.1% BSA, 0.01% Triton X-100, 1% DMSO, 1 uM substrate and 5 nM HDAC enzyme. Enzyme and compounds were pre-incubated at 25° C. for 5 hours and reactions were initiated by addition of substrate. 10 uL reactions were incubated for 17 hours at 25° C. and terminated by the addition of 40 uL of buffer containing 100 mM HEPES (pH 7.5), 0.1% BSA, 0.01% Triton X-100 and 0.05% SDS. Substrate and product peptides present in each sample were separated electrophoretically using the LabChip 3000 capillary electrophoresis instrument. Change in the relative fluorescence intensity of the substrate and product peaks reflects enzyme activity. Reaction progress was determined as the product to sum ratio (PSR):P/(S+P), where P is the peak height of the product peptide and S is the peak height of the substrate peptide. Reactions were performed in duplicate at 12 concentrations, (3× serial dilutions starting at 30 uM). IC50 values were calculated using a 4 Parameter Logistic Model.
row,SMILES,IC50
1,Nc1ccc(-c2ccc(F)cc2)nc1NC(=O)C1[C@H]2CN(C3CCOCC3)C[C@@H]12 (stereo partly drawn) [Compound 264],> 5000 nM
2,Nc1ccc(-c2ccc(F)cc2)nc1NC(=O)N1Cc2cc(CN3CCC(F)(F)C3)cnc2C1 [Compound 273],100 to 500 nM
3,CN1CCC(c2cnc3c(c2)CN(C(=O)Nc2nc(-c4ccc(F)cc4)ccc2N)C3)CC1 [Compound 252],100 to 500 nM
4,CN1CC(n2cc3c(n2)CN(C(=O)Nc2nc(-c4ccc(F)cc4)ccc2N)C3)C1 [Compound 247],100 to 500 nM
5,Nc1ccc(-c2ccc(F)cc2)nc1NC(=O)N1Cc2ccc(CO)cc2C1 [Compound 366],100 to 500 nM
6,Nc1ccc(-c2ccccc2)nc1NC(=O)CN1CCn2cncc2C1 [Compound 194],> 5000 nM
7,COC1CCN(Cc2ccc3c(c2)CN(C(=O)Nc2nc(-c4ccc(F)cc4)ccc2N)C3)C1 (stereo not drawn) [Compound 363],100 to 500 nM
8,Nc1ccc(-n2cccn2)nc1NC(=O)C1CN(Cc2ccccc2)C1 [Compound 205],> 5000 nM
9,Nc1ccc(-c2ccc(F)cc2)nc1NC(=O)N1Cc2cc(CN3CCCC3)cnc2C1 [Compound 155],100 to 500 nM
10,COC[C@@H]1[C@H]2CN(C(=O)Nc3nc(-c4ccc(F)cc4)ccc3N)C[C@@H]12 [Compound 276],500 to 5000 nM
11,Nc1ccc(-c2ccco2)nc1NC(=O)N1CC2CN(C3COC3)CC2C1 (stereo not drawn) [Compound 182],> 5000 nM
12,Nc1ccc(-c2cccnc2)nc1NC(=O)N1Cc2cc(F)cnc2C1 [Compound 218],> 5000 nM
13,Nc1ccc(-c2cccnc2)nc1NC(=O)C1CCN(Cc2ccccc2F)CC1 [Compound 378],> 5000 nM
14,Nc1ccc(-c2ccc(F)cc2)nc1NC(=O)N1Cc2cnc(N3CCOCC3)cc2C1 [Compound 150],100 to 500 nM
15,Nc1ccc(-c2cccnc2)nc1NC(=O)N1Cc2nccnc2C1 [Compound 214],500 to 5000 nM
16,Nc1ccc(-c2ccc(F)cc2)nc1NC(=O)C1[C@H]2CN(C3COC3)C[C@@H]12 (stereo partly drawn) [Compound 239],> 5000 nM
17,Nc1ccc(-c2ccc(F)cc2)nc1NC(=O)N1CC2CCCC2C1 (stereo not drawn) [Compound 385],500 to 5000 nM
18,CN(C)CCN1CC2CN(C(=O)Nc3nc(-c4ccc(F)cc4)ccc3N)CC2C1 (stereo not drawn) [Compound 166],500 to 5000 nM
19,Nc1ccc(-c2ccc(F)cc2)nc1NC(=O)N1Cc2cc(F)cnc2C1 [Compound 186],500 to 5000 nM
20,Cn1cc(CN2CCCC3(CCN(C(=O)Nc4nn(-c5ccc(F)cc5)cc4N)C3)C2)cn1 (stereo not drawn) [Compound 123],> 5000 nM
21,CN1CC(CC(=O)Nc2nc(-c3ccc(F)cc3)ccc2N)C1 [Compound 376],> 5000 nM
22,Nc1cn(-c2ccccc2)nc1NC(=O)N1CC2CCCC2C1 (stereo not drawn) [Compound 384],> 5000 nM
23,CN(C1COC1)C1CC2CN(C(=O)Nc3nc(-c4ccc(F)cc4)ccc3N)CC2C1 (stereo not drawn) [Compound 248],500 to 5000 nM

# Other lines, results leading:
row,IC50,SMILES
1,100 to 500 nM,Nc1ccc(-c2ccc(F)cc2)nc1NC(=O)N1Cc2cnc(C3CCOCC3)cc2C1 [Compound 240]
2,> 5000 nM,Cn1cc(CN2CCC3(CC2)CCN(C(=O)Nc2nc(-c4cccnc4)ccc2N)C3)cn1 [Compound 215]
3,> 5000 nM,CN(C)[C@H]1[C@@H]2CN(C(=O)Nc3nc(-c4ccc(F)cc4)ccc3N)C[C@@H]21 [Compound 242]
4,100 to 500 nM,CC(O)c1ccc2c(c1)CN(C(=O)Nc1nc(-c3ccc(F)cc3)ccc1N)C2 (stereo not drawn) [Compound 394]
5,500 to 5000 nM,Cn1ncc2c1CN(C(=O)Nc1nc(-c3ccc(F)cc3)ccc1N)C2 [Compound 258]
6,500 to 5000 nM,Nc1ccc(-c2ccc(F)cc2)nc1NC(=O)N1CC2COCC2C1 (stereo not drawn) [Compound 392]
7,100 to 500 nM,Nc1ccc(-c2ccc(F)cc2)nc1NC(=O)N1Cc2ccncc2C1 [Compound 373]
8,> 5000 nM,Nc1ccc(-n2cccn2)nc1NC(=O)N1CC2CN(Cc3ccccc3F)CC2C1 (stereo not drawn) [Compound 177]
9,500 to 5000 nM,CN1CCN(c2ccc3c(c2)CN(C(=O)Nc2nn(-c4ccccc4)cc2N)C3)CC1 [Compound 352]
10,> 5000 nM,Nc1ccc(-c2ccc(F)cc2)nc1NC(=O)N1CC2CC(N3CCOCC3)CC2C1 (stereo not drawn) [Compound 181]
